In patent US8148391B2 (Cephalon, Inc., priority 2006, dated 2012):
Read-outs that look alike come from different tables or passages of the source. Blank lines part the entries; values can stand above or below the molecule they belong to.

Key:
[1] = molecular target: T1, c-Met (cytoplasmic domain) (Homo sapiens, UniProt P08581); assay: c-Met Kinase Assay (same methods as for ALK, with modifications); type: biochemical
T1 construct: 10 ng/mL c-Met (cytoplasmic domain, Invitrogen Corporation #PV3143); purchased Invitrogen Corporation PV3143
T1 sequence (P08581 956-1390 limits assumed): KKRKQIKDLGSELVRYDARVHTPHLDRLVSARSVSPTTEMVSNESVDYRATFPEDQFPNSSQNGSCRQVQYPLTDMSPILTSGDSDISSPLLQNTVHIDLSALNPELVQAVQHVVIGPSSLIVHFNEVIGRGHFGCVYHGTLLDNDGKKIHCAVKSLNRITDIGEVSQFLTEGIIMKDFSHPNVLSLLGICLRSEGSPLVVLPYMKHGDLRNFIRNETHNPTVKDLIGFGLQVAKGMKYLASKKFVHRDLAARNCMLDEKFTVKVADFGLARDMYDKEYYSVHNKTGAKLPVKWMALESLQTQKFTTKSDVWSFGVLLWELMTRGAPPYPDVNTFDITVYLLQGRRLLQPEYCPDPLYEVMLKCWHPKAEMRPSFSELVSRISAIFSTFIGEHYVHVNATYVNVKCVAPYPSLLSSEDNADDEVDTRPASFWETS
In short: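 Europium-labeled PT66 antibody (Eu-N1) detects substrate phosphorylation on wells coated with phospholipase C-γ at 10 μg/mL. The kinase, the cytoplasmic domain of c-Met at 10 ng/mL, starts the reaction, which proceeds 15 minutes at 37° C.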

[2] = molecular target: T2, baculovirus-expressed ALK (Homo sapiens, UniProt Q9UM73); assay: ALK Kinase Assay (ELISA-type, time-resolved fluorescence); type: biochemical
T2 construct: host or cells: baculovirus expression system
T2 sequence (Q9UM73 19-1620): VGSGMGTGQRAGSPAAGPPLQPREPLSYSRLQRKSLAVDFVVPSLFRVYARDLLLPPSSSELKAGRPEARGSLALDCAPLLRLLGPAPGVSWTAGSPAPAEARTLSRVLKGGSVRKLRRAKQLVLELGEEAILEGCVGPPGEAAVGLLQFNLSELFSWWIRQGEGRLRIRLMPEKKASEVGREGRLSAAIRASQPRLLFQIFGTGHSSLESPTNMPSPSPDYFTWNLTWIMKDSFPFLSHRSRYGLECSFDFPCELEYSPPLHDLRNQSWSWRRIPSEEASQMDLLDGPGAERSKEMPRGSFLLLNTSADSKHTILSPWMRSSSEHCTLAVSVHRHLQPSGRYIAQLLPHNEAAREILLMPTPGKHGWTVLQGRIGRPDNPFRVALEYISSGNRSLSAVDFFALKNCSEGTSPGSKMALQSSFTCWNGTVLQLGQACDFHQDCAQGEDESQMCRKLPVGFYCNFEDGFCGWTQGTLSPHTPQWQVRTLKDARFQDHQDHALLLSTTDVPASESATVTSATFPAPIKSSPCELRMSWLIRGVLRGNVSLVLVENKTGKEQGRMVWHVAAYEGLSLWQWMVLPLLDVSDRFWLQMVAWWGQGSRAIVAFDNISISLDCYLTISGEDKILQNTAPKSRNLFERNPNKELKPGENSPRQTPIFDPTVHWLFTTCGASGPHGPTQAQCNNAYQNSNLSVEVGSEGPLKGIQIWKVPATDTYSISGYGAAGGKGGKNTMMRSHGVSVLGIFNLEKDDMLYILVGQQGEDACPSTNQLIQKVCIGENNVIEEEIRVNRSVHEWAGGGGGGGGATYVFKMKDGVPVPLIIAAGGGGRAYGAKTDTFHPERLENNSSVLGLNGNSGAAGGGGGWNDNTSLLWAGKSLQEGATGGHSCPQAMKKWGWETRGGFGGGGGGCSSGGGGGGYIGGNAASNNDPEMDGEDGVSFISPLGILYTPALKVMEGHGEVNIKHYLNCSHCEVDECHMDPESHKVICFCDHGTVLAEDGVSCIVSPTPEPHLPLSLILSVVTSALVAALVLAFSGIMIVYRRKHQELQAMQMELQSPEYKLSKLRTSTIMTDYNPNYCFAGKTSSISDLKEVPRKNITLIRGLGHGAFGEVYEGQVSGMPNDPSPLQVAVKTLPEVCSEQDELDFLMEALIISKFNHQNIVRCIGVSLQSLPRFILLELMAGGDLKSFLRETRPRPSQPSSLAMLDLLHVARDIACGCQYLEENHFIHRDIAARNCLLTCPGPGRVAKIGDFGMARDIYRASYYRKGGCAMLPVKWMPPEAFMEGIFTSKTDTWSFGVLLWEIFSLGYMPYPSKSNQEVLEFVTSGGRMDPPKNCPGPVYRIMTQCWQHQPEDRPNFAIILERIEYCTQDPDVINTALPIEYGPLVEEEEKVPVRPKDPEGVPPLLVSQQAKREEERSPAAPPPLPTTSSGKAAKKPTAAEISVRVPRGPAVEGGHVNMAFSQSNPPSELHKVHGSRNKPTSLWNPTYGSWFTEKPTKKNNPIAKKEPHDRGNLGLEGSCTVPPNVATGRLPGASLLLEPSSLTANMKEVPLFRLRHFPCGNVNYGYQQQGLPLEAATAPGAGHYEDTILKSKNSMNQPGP
In short: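 Plates coated with phospholipase C-γ substrate (10 μg/mL in TBS); reaction started with 30 ng/ml ALK and run 15 min at 37° C. Phosphorylated substrate detected with Eu-N1-labeled PT66 antibody. IC50 from sigmoidal variable-slope fit of percent inhibition vs log concentration.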

[3] = 1 μM ATP (Km level), read-out: cMet Activity (c-Met Kinase Inhibition, IC50)
[4] = 1 μM ATP (Km level), read-out: ALK Activity (ALK Kinase Inhibition, IC50)
[5] = c-Met kinase inhibition, 1 μM ATP, read-out: cMet Activity
[6] = ALK kinase inhibition, 1 μM ATP, read-out: ALK Activity
[7] = c-Met kinase inhibition, 1 μM ATP (Km level), read-out: cMet Activity
[8] = ALK kinase inhibition, 1 μM ATP (Km level), read-out: ALK Activity
[9] = 1 μM ATP (Km level), 10 ng/mL c-Met, read-out: cMet Activity (c-Met kinase inhibition, IC50 class)
[10] = 1 μM ATP (Km level), 30 ng/ml ALK, 37° C., 15 minutes, read-out: ALK Activity (ALK kinase inhibition, IC50 class)

IC50 [1, 3]: > 10000 nM
IC50 [2, 4]: < 100 nM
Molecule: CNC(=O)CN1CCc2cc(Nc3ncc(Cl)c(Nc4ccc(N5CCN(C)CC5)c(C)c4)n3)c(OC)cc2CC1 [Example 798, 2-(7-{5-Chloro-4-[3-methyl-4-(4-methyl-piperazin-1-yl)-phenylamino]-pyrimidin-2-ylamino}-8-methoxy-1,2,4,5-tetrahydro-benzo[d]azepin-3-yl)-N-methyl-acetamide]

IC50 [1, 9]: > 10000 nM
IC50 [2, 10]: 100 to 1000 nM
Molecule: CNC(=O)CN1CCc2cc(Nc3ncc(Cl)c(Nc4cc(C(N)=O)ccc4OC)n3)c(OC)cc2CC1 [Example 1138, 3-[5-Chloro-2-(8-methoxy-3-methylcarbamoylmethyl-2,3,4,5-tetrahydro-1H-benzo[d]azepin-7-ylamino)-pyrimidin-4-ylamino]-4-methoxy-benzamide]

IC50 [1, 3]: > 10000 nM
IC50 [2, 4]: < 100 nM
Molecule: CCN1CC(=O)N(C)c2cc(Nc3ncc(Cl)c(Nc4ccc(OC)cc4-n4cccn4)n3)c(OC)cc2C1 [Example 742, 8-[5-Chloro-4-(4-methoxy-2-pyrazol-1-yl-phenylamino)-pyrimidin-2-ylamino]-4-ethyl-7-methoxy-1-methyl-1,3,4,5-tetrahydro-benzo[e][1,4]diazepin-2-one]

IC50 [1, 5]: > 10000 nM
IC50 [2, 6]: < 100 nM
Molecule: COc1cc2c(cc1Nc1ncc(Cl)c(Nc3ccccc3S(=O)(=O)N3CC[C@@H](O)C3)n1)CCN(C[C@@H](C)O)CC2 [Example 1557, (R)-1-(2-{5-Chloro-2-[3-((R)-2-hydroxy-propyl)-8-methoxy-2,3,4,5-tetrahydro-1H-3-benzazepin-7-ylamino]-pyrimidin-4-ylamino}-benzenesulfonyl)-pyrrolidin-3-ol]

IC50 [1, 7]: < 100 nM
IC50 [2, 8]: < 100 nM
Molecule: CNC(=O)c1ccccc1Nc1nc(Nc2ccc3c(c2)N(C)CCN(CCO)C3)ncc1Cl [Example 485, 2-{5-Chloro-2-[4-(2-hydroxy-ethyl)-1-methyl-2,3,4,5-tetrahydro-1H-benzo[e][1,4]diazepin-8-ylamino]-pyrimidin-4-ylamino}-N-methyl-benzamide]

IC50 [1, 7]: < 100 nM
IC50 [2, 8]: < 100 nM
Molecule: CNC(=O)c1ccccc1Nc1nc(Nc2ccc3c(c2)NCCN(C)C3=O)ncc1Cl [Example 412, 2-[5-Chloro-2-(4-methyl-5-oxo-2,3,4,5-tetrahydro-1H-benzo[e][1,4]diazepin-8-ylamino)-pyrimidin-4-ylamino]-N-methylbenzamide]

IC50 [1, 9]: > 10000 nM
IC50 [2, 10]: < 100 nM
Molecule: CNC(=O)c1ccc(Nc2nc(Nc3cc4c(cc3OC)CCN(CC(=O)N(C)C)CC4)ncc2Cl)c(OC)c1 [Example 1176, 4-[5-Chloro-2-(3-dimethylcarbamoylmethyl-8-methoxy-2,3,4,5-tetrahydro-1H-benzo[d]azepin-7-ylamino)-pyrimidin-4-ylamino]-3-methoxy-N-methyl-benzamide]

IC50 [1, 9]: > 10000 nM
IC50 [2, 10]: < 100 nM
Molecule: COCCOc1ccc(Nc2nc(Nc3cc4c(cc3OC)CCN(CCS(C)(=O)=O)CC4)ncc2Cl)c(OC)c1 [Example 1168, 5-Chloro-N*2*-[3-(2-methanesulfonyl-ethyl)-8-methoxy-2,3,4,5-tetrahydro-1H-benzo[d]azepin-7-yl]-N*4*-[2-methoxy-4-(2-methoxy-ethoxy)-phenyl]-pyrimidine-2,4-diamine]

The next lines start with the molecule.

Molecule: COCCN1CCc2ccc(Nc3ncc(C(F)(F)F)c(N[C@H]4[C@@H](C(N)=O)[C@@H]5C=C[C@H]4C5)n3)cc2CC1 [Example 934, (1S,2S,3R,4R)-3-{2-[3-(2-Methoxy-ethyl)-2,3,4,5-tetrahydro-1H-3-benzazepin-7-ylamino]-5-trifluoromethyl-pyrimidin-4-ylamino}-bicyclo[2.2.1]hept-5-ene-2-carboxylic acid amide]
IC50 [1, 3]: < 100 nM
IC50 [2, 4]: < 100 nM

Molecule: COc1cc2c(cc1Nc1ncc(Cl)c(N[C@@H]3CCCC[C@H]3NS(C)(=O)=O)n1)NC(=O)CNC2 [Example 1655, N-{(1R,2R)-2-[5-Chloro-2-(7-methoxy-2-oxo-2,3,4,5-tetrahydro-1H-benzo[e][1,4]diazepin-8-ylamino)-pyrimidin-4-ylamino]-cyclohexyl}-methanesulfonamide]
IC50 [1, 5]: > 10000 nM
IC50 [2, 6]: < 100 nM

Molecule: CCN1CC2CC(C1)c1cc(Nc3ncc(Cl)c(Nc4ccccc4C(=O)NC)n3)ccc12 (stereo not shown) [Example 156, 2-[5-Chloro-2-(10-ethyl-10-aza-tricyclo[6.3.1.0*2,7*]dodeca-2,4,6-trien-4-ylamino)-pyrimidin-4-ylamino]-N-methyl-benzamide]
IC50 [1, 7]: < 100 nM
IC50 [2, 8]: < 100 nM

Molecule: CC(C)N1C(=O)CCCc2cc(Nc3ncc(Cl)c(N[C@@H]4CCCC[C@H]4NS(C)(=O)=O)n3)ccc21 [Example 667, N-{(1R,2R)-2-[5-Chloro-2-(1-isopropyl-2-oxo-2,3,4,5-tetrahydro-1H-benzo[b]azepin-7-ylamino)-pyrimidin-4-ylamino]-cyclohexyl}-methanesulfonamide]
IC50 [1, 3]: 100 to 1000 nM
IC50 [2, 4]: < 100 nM

Molecule: CCN1C(=O)CCC(C)(C)c2ccc(Nc3ncc(Cl)c(Nc4ccc(N5CCOCC5)cc4S(=O)(=O)N(C)C)n3)cc21 [Example 851, 2-[5-Chloro-2-(1-ethyl-5,5-dimethyl-2-oxo-2,3,4,5-tetrahydro-1H-benzo[b]azepin-8-ylamino)-pyrimidin-4-ylamino]-N,N-dimethyl-5-morpholin-4-yl-benzenesulfonamide]
IC50 [1, 3]: 1000 to 10000 nM
IC50 [2, 4]: < 100 nM

Molecule: CCN1CCN(CC)c2cc(Nc3ncc(Cl)c(Nc4ccc5c(c4)N(CC)CCN(CC)C5)n3)ccc2C1 [Example 721, 5-Chloro-N*2*,N*4*-bis(1,4-diethyl-2,3,4,5-tetrahydro-1H-benzo[e][1,4]diazepin-8-yl)-pyrimidin-2,4-diamine]
IC50 [1, 3]: > 10000 nM
IC50 [2, 4]: < 100 nM

Molecule: C#CCNC(=O)c1sccc1Nc1nc(Nc2ccc3c(c2)OCCCN3C(=O)OCCCN(C)C)ncc1Cl [Example 1429, 3-[5-Chloro-4-(2-prop-2-ynylcarbamoyl-thiophen-3-ylamino)-pyrimidin-2-ylamino]-7,8-dihydro-6H-5-oxa-9-aza-benzocycloheptene-9-carboxylic acid 3-dimethylamino-propyl ester]
IC50 [1, 9]: 100 to 1000 nM
IC50 [2, 10]: 100 to 1000 nM

Molecule: CNC(=O)c1ccccc1Nc1nc(Nc2ccc3c(c2OC)CCC(N2CCOCC2)CC3)ncc1Cl (racemic) [Example 915, 2-[5-Chloro-2-(1-methoxy-7-morpholin-4-yl-6,7,8,9-tetrahydro-5H-benzocyclohepten-2-ylamino)-pyrimidin-4-ylamino]-N-methyl-benzamide]
IC50 [1, 3]: 1000 to 10000 nM
IC50 [2, 4]: < 100 nM

Molecule: CNC(=O)c1scc(C)c1Nc1nc(Nc2ccc3c(c2)CNC(=O)CC3)ncc1Cl [Example 1795, 3-[5-Chloro-2-(3-oxo-2,3,4,5-tetrahydro-1H-benzo[c]azepin-8-ylamino)-pyrimidin-4-ylamino]-4-methyl-thiophene-2-carboxylic acid methylamide]
IC50 [1, 5]: < 100 nM
IC50 [2, 6]: 1000 to 10000 nM

Molecule: COc1cc2c(cc1Nc1ncc(F)c(NC3C4C=CC(C4)C3C(N)=O)n1)CCN(CC(F)F)CC2 (stereo not drawn) [Example 769, (2-exo,3-exo)-3-{2-[3-(2,2-Difluoro-ethyl)-8-methoxy-2,3,4,5-tetrahydro-1H-benzo[d]azepin-7-ylamino]-5-fluoro-pyrimidin-4-ylamino}-bicyclo[2.2.1]hept-5-ene-2-carboxylic acid amide]
IC50 [1, 3]: > 10000 nM
IC50 [2, 4]: 100 to 1000 nM

Molecule: CNC(=O)c1cccc(Cl)c1Nc1nc(Nc2ccc3c(c2)CC(=O)N(C)CC3)ncc1Cl [Example 1817, 3-Chloro-2-[5-chloro-2-(3-methyl-4-oxo-2,3,4,5-tetrahydro-1H-benzo[d]azepin-7-ylamino)-pyrimidin-4-ylamino]-N-methylbenzamide]
IC50 [1, 5]: 100 to 1000 nM
IC50 [2, 6]: 1000 to 10000 nM

Molecule: COc1cc2c(cc1Nc1ncc(Cl)c(N[C@@H]3CCCC[C@H]3NS(C)(=O)=O)n1)CCN(CCO)CC2 [Example 1531, N-((1R,2R)-2-{5-Chloro-2-[3-(2-hydroxy-ethyl)-8-methoxy-2,3,4,5-tetrahydro-1H-3-benzazepin-7-ylamino]-pyrimidin-4-ylamino}-cyclohexyl)-methanesulfonamide]
IC50 [1, 5]: > 10000 nM
IC50 [2, 6]: < 100 nM

Molecule: CNC(=O)c1ccccc1Nc1nc(Nc2ccc3c(c2)CNC(=O)NC3)ncc1Cl [Example 227, 2-[5-Chloro-2-(3-oxo-2,3,4,5-tetrahydro-1H-benzo[e][1,3]diazepin-7-ylamino)-pyrimidin-4-ylamino]-N-methyl-benzamide]
IC50 [1, 7]: < 100 nM
IC50 [2, 8]: < 100 nM

Molecule: CNS(=O)(=O)c1ccccc1Nc1nc(Nc2ccc3c(c2)C2CC3CN(CCOC)C2)ncc1Cl (stereo not shown) [Example 162, 2-{5-Chloro-2-[10-(2-methoxy-ethyl)-10-aza-tricyclo[6.3.1.0*2,7*]dodeca-2,4,6-trien-4-ylamino]-pyrimidin-4-ylamino}-N-methyl-benzenesulfonamide]
IC50 [1, 7]: 1000 to 10000 nM
IC50 [2, 8]: < 100 nM

Molecule: (1S,2S,3R,4R)-3-{5-Chloro-2-[7-(2,2-difluoro-ethylamino)-6,7,8,9-tetrahydro-5H-benzocyclohepten-2-ylamino]-pyrimidin-4-ylamino}-bicyclo[2.2.1]hept-5-ene-2-carboxylic acid amide [Example 677]
IC50 [1, 3]: > 10000 nM
IC50 [2, 4]: < 100 nM
